The values below are quoted from earlier work in US20080176893A1, “Formulation of a Thienopyridine Platelet Aggregation Inhibitor” (ELI LILLY AND COMPANY, priority 2005, published 2008).

Regarding `CC(=O)Oc1cc2c(s1)CCN(C(C(=O)C1CC1)c1ccccc1F)C2.Cl` (stereo not drawn) [Prasugrel, 2-Acetoxy-5-(α-cycloprpylcarbonyl-2-fluorobenzyl)-4,5,6,7-tetrahydrothieno[3,2-c]pyridine], the “degradation on prolonged exposure to air and moisture” value was “some degradation”.
